Assays:
[1] = tested on: female Aedes aegypti mosquitoes; assay: Non-competitive olfactometer bioassay of absolute attraction to attractants with or without candidate inhibitors; format: in vivo; settings: for Attraction Mean ± SE (%): 50 μL heterocycle combined with 500 μL 3-compound attractant blend, line Blend = attractant alone; for Attraction with 50 μL 1-MPZ mean ± SE (%): 3 min
[2] = tested on: Anopheles albimanus mosquitoes; assay: Competitive (two-port) olfactometer bioassay of attractants and inhibitors; format: in vivo; settings: competing port: B + (1-MPZ) + (4-MM)
[3] = tested on: female Ae. aegypti; assay: as above; format: in vivo, Aedes aegypti
Text: Mosquitoes choose to fly upwind into a port with the treatment or choose to remain in the cage. It is clear that in competition, these mosquitoes preferred the natural human odors over the blend by about a 5:1 margin.

Compound: OCCN1CCN(CCO)CC1 [1,4-bis(2-hydroxyethyl)piperazine]
- Attraction Mean ± SE (%) ([1]; listed as 1,4-bis (2-hydroxyethyl)piperazine-2,2′-1,4-diyldiethanol): 73%

Compound: CN1CCNCC1 [1-MPZ, 1-methylpiperazine]
- Attraction with 50 μL 1-MPZ mean ± SE (%) ([1]; attractant: 1 mL 3-compound blend): 12.8 ± 1.8%
- Attraction with 50 μL 1-MPZ mean ± SE (%) ([1]; attractant: human arm/hand odor): 23.5 ± 3.0%
- Attraction mean ± SE (%), Treatment 2 ([2]; port: B + (1-MPZ)): 9.7 ± 3.3%
- Total Catch (%) ([3]; both ports: Human + 1-MPZ (50 μL) vs Blend, 97.2% without 1-MPZ): 78.1%
- Attraction mean ± SE (%), Treatment 1 ([3]; port: B + (1-MPZ), competing port: B + (1-M-4-OPZ)): 4.6 ± 1.5%
- Attraction mean ± SE (%), Treatment 2 ([3]; port: B + (1-MPZ), competing port: B + (1-MPZ) + (4-MM)): 5.1 ± 1.1%
- Attraction mean ± SE (%), Treatment 1 ([3]; port: B + (1-MPZ), competing port: B + (4-MM)): 5.4 ± 1.3%
- Attraction mean ± SE (%), Treatment with Inhibitor ([3]; port: Blend + inhibitor (50 μL each), competing port: Blend): 3.4 ± 1.0%
- Attraction mean ± SE (%), Treatment with Inhibitor ([3]; port: Blend + inhibitor (50 μL each), competing port: RH odors): 0.9 ± 0.3%
- Attraction mean ± SE (%), Treatment with Inhibitor ([3]; port: RH odors + inhibitor (50 μL each), competing port: Blend): 14.1 ± 2.7%
- Attraction mean ± SE (%), Treatment with Inhibitor ([3]; port: RH odors + inhibitor (50 μL each), competing port: LH odors): 7.7 ± 1.2%
- Attraction ± SE (%), Treatment 1 port ([3]; port: human odor + 50 μL 1-MPZ, competing port: Blend): 29.5 ± 3.2%

Compound: CCCCCCCCN1CCN(C)CC1 [1M-4-OPZ, 1-methyl-4-octylpiperazine]
- Attraction mean ± SE (%), Treatment 2 ([3]; port: B + (1-M-4-OPZ), competing port: B + (1-MPZ)): 24.5 ± 4.4%

Compound: CN1CCOCC1 [4-MM, 4-methylmorpholine]
- Attraction mean ± SE (%), Treatment 2 ([2]; port: B + (4-MM)): 5.2 ± 2.0%
- Attraction mean ± SE (%), Treatment 2 ([3]; port: B + (4-MM), competing port: B + (1-MPZ)): 8.0 ± 1.1%
- Attraction mean ± SE (%), Treatment 2 ([3]; port: B + (4-MM), competing port: B + (1-MPZ) + (4-MM)): 5.1 ± 1.8%

Compound: C1CNCCN1 [piperazine]
- Attraction Mean ± SE (%) [1]: 41.4%

From patent US8207157B2, “Methods and compositions for repelling arthropods” (The United States of America, as represented by the …, priority 2006, dated 2012)
